Results from patent US9611286B2, “Ruthenium carbon monoxide releasing molecules and uses thereof” (Alfama, Inc., priority 2011, dated 2017).

Experiments:
P. berghei ANKA GFP [1] = test: Adjunctive/adjuvant therapy with artesunate after onset of ECM; format: in vivo, C57BL/6 mice; details: for parasitemia: AS alone 40 mg/Kg/day i.p. d5-d6
Method: Thus, the inventors decided to test Compound 1 as an adjunctive and adjuvant therapy during the acute phase of ECM. […] Therefore, the inventors assessed the combination of Compound 1 and AS on parasite clearance and clinical recovery from ECM. Two AS and Compound 1 combinations were tested: (i) Adjunctive therapy: AS and Compound 1 were administered concomitantly for 2 days after the onset of CM followed by a 3-day treatment with Compound 1 alone, or (ii) Adjuvant therapy: AS was administered on the first 2 days after CM onset followed by Compound 1 administration for 3 more days.
(§1) In order to evaluate the clinical presentation of experimental cerebral malaria, a classification was used in clinical stages from 0 to 4 (see, e.g., Bienvenu et al., Acta Trop (2008) 106:104-8; Franklin et al., Proc Natl Acad Sci USA (2011) 108:3689-94). Briefly, stage 0 indicates no detectable clinical symptoms, stage 1, ruffled fur; stage 2, ruffled fur and unbalancing; stage 3, limb paralysis and respiratory distress and stage 4, convulsions, coma or death. The mice were clinically classified before and after the treatment to evaluate the clinical recovery.
(§2) CORM-2 (Sigma-Aldrich) and Compound 2 were solubilized using 10% dimethyl sulfoxide (DMSO; Sigma-Aldrich) in PBS. CORM-3 and Compound 1 were solubilized in PBS (lx). CORM-2 solution (20 mg/kg of body weight) was administered intravenously (i.v.) according to the chosen schedules. […] As vehicle control, we used a solution of 10% DMSO in PBS administered i.v. The concentrations of CORM-2 used in the present study were based on previous reports (see, e.g., Chen et al. Am. J. Pathol. (2009) 175:422-429; Sun et al., World. J. Gastroenterol. (2008) 14:547-553). Artesunate is presented as a powder of artesunic acid. Artesunate (AS) solution was prepared by dissolving 60 mg of anhydrous artesunic acid in 1 ml of sodium bicarbonate (5%) to form sodium artesunate and then diluted in 5 ml of NaCl (0.9%). An AS solution (i.p.) was administered at 40 mg/Kg/day, as described previously (see, e.g., Bienvenu, Acta Trop (2008) 106:104-108). The AS treatment was started when the infected non-treated mice presented the clinical stage 1 for experimental cerebral malaria.

[2] = cited from earlier work
P. berghei ANKA GFP [3] = format: in vivo, C57BL/6 mice; details: for hyperparasitemia in protected mice (infected red blood cells): 3 weeks after infection; for effect on parasitemia: treated twice daily days 2-3, observed from about day 5 to day 8 of infection
Method: It has previously been shown that administration of CO by inhalation protects P. berghei ANKA infected C57BL/6 mice from developing ECM (see, e.g., Pamplona et al. Nat Med (2007) 13:703-710). The inventors questioned whether CO-RMs could mimic the protection conferred by CO inhalation in P. berghei ANKA infection. To this end, a known ruthenium CORM, Ru(CO)3Cl2, also referred to herein as CORM-2, was tested on different schedules of treatment and doses in P. berghei ANKA infected C57BL/6 mice (data not shown).
Red blood cells infected with green fluorescent protein (GFP)-transgenic P. berghei ANKA and P. berghei ANKA was used to infect mice (see, e.g., Franke-Fayard et al. Mol Biochem Parasitol (2004) 137:23-33). Cryopreserved parasites were passed once through C57BL/6 or DBA-2 mice before being used to infect experimental animals. C57BL/6 or DBA-2, 6- to 8-wk-old mice (sex matched in each experiment) were infected by intra-peritoneal (i.p.) injection of 10^6 infected RBCs. The infected mice were monitored daily for clinical symptoms of experimental cerebral malaria (ECM) including hemi- or paraplegia, head deviation, tendency to roll over on stimulation, ataxia and convulsions, or ALI, including dyspnea. Mice showing severe signs of ECM at day 5, 6 or 7 post-infection (p.i.) and ALI between days 7 and 9 were sacrificed. Parasitemia was assessed by flow cytometry for mice infected with GFP-expressing P. berghei ANKA, using tail blood, as previously described (see, e.g., Pamplona et al., Nat Med (2007) 13:703-710). Mean parasitemia is expressed as percentage of infected red blood cells. For mice infected with non-GFP P. berghei parasitemia was assessed daily by microscopic counting of Giemsa-stained thin blood smears. Mean parasitemia is expressed as percentage of infected red blood cells. Survival is expressed as percentage.
as §1, §2

Hen Egg White Lysozyme C = molecular target: T1, Hen Egg White Lysozyme C (Gallus gallus, UniProt P00698); test: Hen egg white lysozyme (HEWL) assay, reactivity with proteins by LC-MS; format: binding; details: 10 equiv in H2O, room temperature, 10 minutes and 1 hour
T1 construct: one corresponding to the mass of native lysozyme (14305=calculated mass); from tissue; host or cells: hen egg white
T1 sequence (P00698 19-147): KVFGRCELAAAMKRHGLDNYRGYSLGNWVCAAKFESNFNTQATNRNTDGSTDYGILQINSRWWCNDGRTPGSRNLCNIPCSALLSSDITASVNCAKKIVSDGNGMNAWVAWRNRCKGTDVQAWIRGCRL
Excerpt: The hen egg white lysozyme (HEWL) assay was used to assess the reactivity of Compound 1 in the presence of proteins (see, e.g., Santos-Silva, T. et al. J Am Chem Soc (2011) 133, 1192-1195). This paper describes the interactions of CORM-3 with plasma proteins. CORM-3 reacts rapidily with proteins, losing chloride ion, glycinate, and one CO ligand. […] It was observed that CORM-3 reacts faster and has a much weaker efficacy than Compound 1 in this ECM treatment.
Liquid chromatography-mass spectrometry (LC-MS) was performed on a Micromass Quattro API instrument (ESI-TOF-MS) coupled to a Waters Alliance 2795 HPLC using a MassPREP On-Line Desalting Cartridge. […]
Hen Egg White Lysozyme C (PDB code 3b61; UniProtKB/Swiss-Prot code P00698). […] Quantitative determination of lysozyme-ligand binding in the solution and gas phases by electrospray ionisation mass spectrometry follows Veros et al., Rapid Commun. […] A 50 μL aliquot was analyzed by LC-MS (calculated average isotopic mass of the egg white lysozyme=14305.1).
Santos-Silva and co-workers previously describe CORM-3's reactivity towards proteins and formation of a Ru(II) dicarbonyl-lysozyme complex (see, e.g., Santos-Silva et al., J. Am. Chem. Soc. (2011) 133:1192-1195). […] 50 μL aliquots were collected and analyzed by LC-MS over the reaction time (10 minutes and 1 hour). […]

P. berghei ANKA [4] = test: Malaria-associated acute lung injury (M-AALI) model; format: in vivo, DBA/2 mice; details: i.v. twice daily
Excerpt: The M-AALI model, based on the infection of DBA-2 mice with P. berghei ANKA, is characterized by dyspnea, airway obstruction, hypoxemia, pulmonary exudate and elevated VEGF levels in plasma, followed by death between days 7 and 12 after infection.
Red blood cells infected with green fluorescent protein (GFP)-transgenic P. berghei ANKA and P. berghei ANKA was used to infect mice (see, e.g., Franke-Fayard et al. Mol Biochem Parasitol (2004) 137:23-33). Cryopreserved parasites were passed once through C57BL/6 or DBA-2 mice before being used to infect experimental animals. […] The infected mice were monitored daily for clinical symptoms of experimental cerebral malaria (ECM) including hemi- or paraplegia, head deviation, tendency to roll over on stimulation, ataxia and convulsions, or ALI, including dyspnea. […] Parasitemia was assessed by flow cytometry for mice infected with GFP-expressing P. berghei ANKA, using tail blood, as previously described (see, e.g., Pamplona et al., Nat Med (2007) 13:703-710). Mean parasitemia is expressed as percentage of infected red blood cells. For mice infected with non-GFP P. berghei parasitemia was assessed daily by microscopic counting of Giemsa-stained thin blood smears. Mean parasitemia is expressed as percentage of infected red blood cells. Survival is expressed as percentage. […]

P. falciparum 3D7 = test: In vitro replication of P. falciparum 3D7; format: cell-based, Plasmodium falciparum; details: 48 h
Method: (§3) The data led the inventors to wonder whether Compound 1 could have a direct anti-parasitic effect on P. berghei ANKA and P. falciparum parasites. To this end, the effect of Compound 1 and the anti-malarial chloroquine (CQ) was monitored on the in vitro replication of P. falciparum 3D7 isolate and P. berghei ANKA for 48 h and 24 h, respectively.

[5] = Brain histology (hematoxylin and eosin) in ECM; format: in vivo, C57BL/6 mice; details: P. berghei ANKA-infected mice
Method: For evaluation of histological features, mice were deeply anesthetized until cessation of breathing when infected control mice presented signs of ECM or ALI. The livers, lungs, and brains were removed and fixed in 10% buffered formalin for 24-72 h. Four-micron sections were cut from paraffin-embedded tissues and stained with hematoxylin and eosin according to standard procedures. Histological analyses were performed on a Leica microscope DM 2500 (Leica Microsystems).

P. berghei ANKA [6] = test: In vitro replication of P. berghei ANKA; format: cell-based, Plasmodium berghei; details: 24 h
Method: as §3

[7] = Quantification of Ru in tissues (bio-distribution); details: non-infected mice, i.v.
Method: Tricarbonyldichloro(methylthiogalactopyranoside) Ru(II) [Ru(CO)3Cl2(Gal-S-Me)], also referred to herein as Compound 1, was prepared by reacting CORM-2 with methylthiogalactopyranoside (Gal-S-Me) as described herein (see FIG. 2a and Materials and Methods section). The bio-distribution of Compound 1 in tissues was assessed by quantifying the levels of Ru and CO in the host by the method of Vreman et al., Anal Biochem (2005) 341:280-9. Liver, kidney, spleen, lung and brain tissues of non-infected mice (NI) were analyzed one hour after administration of Compound 1 and the control molecule, Compound 2 (FIG. 2b). […] The spleen is an organ that plays a crucial role in erythrophagocytosis, process important for red blood cell turnover, and recycling of iron. Erythrocytes are hydrolyzed by splenic macrophages, where the degradation of hemoglobin occurs, haem is release, and is catabolized by heme oxygenase-1 into biliverdin, carbon monoxide and ferrous iron (Fe^2+).
The tissue samples were weighed and dried at 80° C. overnight followed by 2 or more hours at 120° C. […] The Ru content was analyzed by an inductively coupled plasma-atomic emission spectrometer (ICP-AES) (model Ultima-Horiba Jobin Yvon, Longjumeau, France) using an external Ru standard method.

In the case of `C[C@H]1[C@H](OC(=O)CCC(=O)O)O[C@@H]2O[C@@]3(C)CC[C@H]4[C@H](C)CC[C@@H]1[C@@]24OO3` [AS, Artesunate], the parasitemia (P. berghei ANKA GFP [1]; day 5 post-infection) is reported as 6.8±0.3%, the parasitemia (P. berghei ANKA GFP [1]; day 9 post-infection) is reported as 0.59±0.06% and the “mice that died with ECM” value (P. berghei ANKA GFP [1]; AS alone d5-d6) is reported as 82%. The survival (P. berghei ANKA GFP [1]; AS alone d5-d6) was 18%.
For `[C-]#[O+].[C-]#[O+].[C-]#[O+].[C-]#[O+].[C-]#[O+].[C-]#[O+].[Cl][Ru][Cl].[Cl][Ru][Cl]` [CORM-2, tricarbonyldichlororuthenium(II) dimer], the “COHb levels in blood after in vivo administration” value [2] is listed as “do not elevate the carboxyhemoglobin (COHb) levels”, the “hyperparasitemia in protected mice (infected red blood cells)” value (P. berghei ANKA GFP [3]) is listed as > 30 % infected red blood cells and the “death or symptoms of ECM” value (P. berghei ANKA GFP [3]; CORM-2 20 mg/kg i.v. twice daily between days 2 and 3 after infection) is listed as “prevented death or symptoms of ECM in all infected C57BL/6 mice”. The effect on parasitemia (P. berghei ANKA GFP [3]) was “statistically significant delay in parasitemia”.
In the case of `NCC(=O)O.[C-]#[O+].[C-]#[O+].[C-]#[O+].[Cl][Ru]` [CORM-3, fac-Ru(CO)3C1(glycinate)], the “COHb levels in blood after in vivo administration” value [2] is given as “do not elevate the carboxyhemoglobin (COHb) levels”, the “reactivity with HEWL (adduct formation)” value (Hen Egg White Lysozyme C) is given as “reacts faster” and the “hyperparasitemia in protected mice (infected red blood cells)” value (P. berghei ANKA GFP [3]) is given as > 50 % infected red blood cells. For the same compound, the “mice protected from ECM” value (P. berghei ANKA GFP [3]; i.v. twice daily between days 2 and 3 after infection, equimolar to CORM-2 20 mg/kg) was 50% and the effect on parasitemia (P. berghei ANKA GFP [3]) was “statistically significant delay in parasitemia”.
In the case of `CS(C)=O.CS(C)=O.CS(C)=O.CS(C)=O.[Cl][Ru][Cl]` [Compound 2, Tetrakis(dimethylsulfoxide)dichlororuthenium(II), reference compound], the “mice that died displaying M-AALI symptoms” value (P. berghei ANKA [4]) is reported as 67%, the “inhibition of in vitro growth” value (P. falciparum 3D7) is reported as “absence of inhibitory effect” and the “neuropathologic features in brain sections” value [5] is reported as “evidence of microvascular congestion with pRBC and leukocytes and hemorrhagic foci”. For the same compound, the “inhibition of in vitro growth” value (P. berghei ANKA [6]) was “absence of inhibitory effect”.
For “Tricarbonyldichloro(methylthiogalactopyranoside) Ru(II) [Compound 1]”, the “amount of Ru retained in the liver after the last injection, of the Ru administered in all doses” value [7] was “about 13.7±0.6%”.
